These results are taken from patent US8969360B2, “Compounds useful as inhibitors of ATR kinase” (Vertex Pharmaceuticals Incorporated, priority 2013, dated 2015).

The pKi is the negative decadic logarithm of the Ki, by convention in mol/L.

pKi: −log10 of the molar value. Where only a bound is given, the exact number is not on record here.

Experiment [1] deals with T1, ATR kinase (Homo sapiens, UniProt Q13535).
T1 construct: Assays were carried out at 25° C. in the presence of 5 nM full-length ATR
T1 sequence (Q13535 whole entry): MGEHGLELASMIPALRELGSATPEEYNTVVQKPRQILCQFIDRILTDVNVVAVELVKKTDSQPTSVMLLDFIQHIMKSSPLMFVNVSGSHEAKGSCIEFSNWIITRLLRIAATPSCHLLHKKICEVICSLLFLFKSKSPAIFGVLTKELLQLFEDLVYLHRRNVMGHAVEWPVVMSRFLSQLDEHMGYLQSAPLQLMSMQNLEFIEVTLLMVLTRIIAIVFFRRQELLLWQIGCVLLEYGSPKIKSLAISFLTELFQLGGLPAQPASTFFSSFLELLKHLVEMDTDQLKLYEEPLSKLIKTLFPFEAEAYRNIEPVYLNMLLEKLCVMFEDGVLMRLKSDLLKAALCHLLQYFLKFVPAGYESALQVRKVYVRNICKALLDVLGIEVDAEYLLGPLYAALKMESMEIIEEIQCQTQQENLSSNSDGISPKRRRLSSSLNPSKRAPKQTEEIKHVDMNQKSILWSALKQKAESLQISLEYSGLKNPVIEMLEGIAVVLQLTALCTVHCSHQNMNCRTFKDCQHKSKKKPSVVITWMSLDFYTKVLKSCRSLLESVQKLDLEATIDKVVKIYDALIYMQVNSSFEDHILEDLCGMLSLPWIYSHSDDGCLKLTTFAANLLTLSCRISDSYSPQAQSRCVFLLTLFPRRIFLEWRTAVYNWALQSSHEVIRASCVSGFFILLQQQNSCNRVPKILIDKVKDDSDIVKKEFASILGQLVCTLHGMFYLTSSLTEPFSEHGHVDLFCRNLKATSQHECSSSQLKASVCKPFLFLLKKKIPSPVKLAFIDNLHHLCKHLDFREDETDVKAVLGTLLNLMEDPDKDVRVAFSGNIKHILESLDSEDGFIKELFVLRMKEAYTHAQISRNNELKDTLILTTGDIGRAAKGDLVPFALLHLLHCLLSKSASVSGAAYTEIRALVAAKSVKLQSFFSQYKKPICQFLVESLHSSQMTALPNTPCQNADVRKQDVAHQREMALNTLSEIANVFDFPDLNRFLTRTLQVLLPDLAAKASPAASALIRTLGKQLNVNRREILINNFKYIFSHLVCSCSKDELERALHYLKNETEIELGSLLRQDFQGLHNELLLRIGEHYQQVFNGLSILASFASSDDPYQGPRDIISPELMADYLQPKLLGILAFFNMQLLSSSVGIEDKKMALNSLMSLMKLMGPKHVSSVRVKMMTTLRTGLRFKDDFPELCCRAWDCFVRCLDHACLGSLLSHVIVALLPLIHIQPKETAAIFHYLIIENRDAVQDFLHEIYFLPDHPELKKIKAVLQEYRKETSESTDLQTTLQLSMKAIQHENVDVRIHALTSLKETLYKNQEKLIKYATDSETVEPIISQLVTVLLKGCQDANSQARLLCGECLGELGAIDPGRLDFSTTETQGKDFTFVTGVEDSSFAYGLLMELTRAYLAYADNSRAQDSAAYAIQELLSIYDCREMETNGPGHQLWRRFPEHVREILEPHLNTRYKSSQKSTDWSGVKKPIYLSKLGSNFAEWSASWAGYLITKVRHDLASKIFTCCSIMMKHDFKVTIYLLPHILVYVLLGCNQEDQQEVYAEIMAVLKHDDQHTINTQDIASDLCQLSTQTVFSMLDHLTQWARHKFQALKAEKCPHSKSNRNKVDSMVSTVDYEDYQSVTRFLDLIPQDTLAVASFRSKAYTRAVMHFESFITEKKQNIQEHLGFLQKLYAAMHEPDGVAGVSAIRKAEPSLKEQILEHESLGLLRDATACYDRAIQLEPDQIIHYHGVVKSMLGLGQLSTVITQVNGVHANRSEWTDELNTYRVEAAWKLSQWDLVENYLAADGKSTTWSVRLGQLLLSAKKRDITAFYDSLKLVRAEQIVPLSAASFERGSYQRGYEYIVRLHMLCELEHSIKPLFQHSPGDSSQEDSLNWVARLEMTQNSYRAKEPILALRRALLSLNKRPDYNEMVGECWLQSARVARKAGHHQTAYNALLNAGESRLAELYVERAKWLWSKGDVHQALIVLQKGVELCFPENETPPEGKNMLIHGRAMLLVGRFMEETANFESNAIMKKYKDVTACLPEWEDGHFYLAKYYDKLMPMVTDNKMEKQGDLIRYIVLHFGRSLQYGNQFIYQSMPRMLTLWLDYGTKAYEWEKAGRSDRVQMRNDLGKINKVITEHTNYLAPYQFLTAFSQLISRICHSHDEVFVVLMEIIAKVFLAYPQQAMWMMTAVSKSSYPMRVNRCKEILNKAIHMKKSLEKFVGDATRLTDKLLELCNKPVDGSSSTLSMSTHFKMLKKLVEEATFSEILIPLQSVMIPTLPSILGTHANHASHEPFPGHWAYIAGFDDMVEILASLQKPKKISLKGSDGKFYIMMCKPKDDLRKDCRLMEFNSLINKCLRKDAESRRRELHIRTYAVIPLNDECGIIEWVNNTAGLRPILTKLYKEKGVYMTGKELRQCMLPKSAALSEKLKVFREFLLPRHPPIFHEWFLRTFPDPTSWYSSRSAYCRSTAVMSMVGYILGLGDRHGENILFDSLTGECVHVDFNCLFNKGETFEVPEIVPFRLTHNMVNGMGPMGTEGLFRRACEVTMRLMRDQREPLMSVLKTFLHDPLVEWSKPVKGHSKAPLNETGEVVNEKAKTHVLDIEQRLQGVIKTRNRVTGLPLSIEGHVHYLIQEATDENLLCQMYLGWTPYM
Nature of the experiment: ATR Inhibition Assay (radioactive-phosphate incorporation). It is filed as biochemical. Particulars: Ki(app); 5 nM full-length ATR, 10 μM ATP, 800 μM target peptide, 25° C. The protocol:
Compounds were screened for their ability to inhibit ATR kinase using a radioactive-phosphate incorporation assay. Assays were carried out in a mixture of 50 mM Tris/HCl (pH 7.5), 10 mM MgCl2 and 1 mM DTT. Final substrate concentrations were 10 μM [γ-33P]ATP (3 mCi 33P ATP/mmol ATP, Perkin Elmer) and 800 μM target peptide (ASELPASQPQPFSAKKK (SEQ. ID NO: 1)).
Assays were carried out at 25° C. in the presence of 5 nM full-length ATR. An assay stock buffer solution was prepared containing all of the reagents listed above, with the exception of ATP and the test compound of interest. 13.5 μL of the stock solution was placed in a 96 well plate followed by addition of 2 μL of DMSO stock containing serial dilutions of the test compound (typically starting from a final concentration of 15 μM with 3-fold serial dilutions) in duplicate (final DMSO concentration 7%). The plate was pre-incubated for 10 minutes at 25° C. and the reaction initiated by addition of 15 μL [γ-33P]ATP (final concentration 10 μM).
The reaction was stopped after […] by the addition of 30 μL, 0.1M phosphoric acid containing 2 mM ATP. A multiscreen phosphocellulose filter 96-well plate (Millipore, Cat no. MAPHN0B50) was pretreated with 100 μL 0.2M phosphoric acid prior to the addition of 45 μL of the stopped assay mixture. The plate was washed with 5×200 μL 0.2M phosphoric acid. After drying, 100 μL Optiphase ‘SuperMix’ liquid scintillation cocktail (Perkin Elmer) was added to the well prior to scintillation counting (1450 Microbeta Liquid Scintillation Counter, Wallac).
After removing mean background values for all of the data points, Ki(app) data were calculated from non-linear regression analysis of the initial rate data using the Prism software package (GraphPad Prism version 3.0cx for Macintosh, GraphPad Software, San Diego Calif., USA).
Compounds with a Ki value of <0.01 μM are marked with “+++.” Compounds with a Ki value >0.01 μM but <1 μM are marked with “++.” Compounds with a Ki value >1 μM but <5 μM are marked with “+.”

The subject of experiment [2] is HCT116 colorectal cancer cells. Description: Cisplatin Sensitization Assay (96 h cell viability MTS). It counts as cell-based. The settings on record: concentration of compound required to reduce the IC50 of Cisplatin alone by at least 3-fold; HCT116, 96 h MTS. The protocol: Compounds can be screened for their ability to sensitize HCT116 colorectal cancer cells to Cisplatin using a 96 h cell viability (MTS) assay. […] Compounds and Cisplatin are then both added simultaneously to the cell media in 2-fold serial dilutions from a top final concentration of 10 μM as a full matrix of concentrations in a final cell volume of 200 μl, and the cells are then incubated at 37° C. in 5% CO2. After 96 h, 40 μl of MTS reagent (Promega G358a) is added to each well and the cells are incubated for 1 h at 37° C. in 5% CO2. Finally, absorbance is measured at 490 nm using a SpectraMax Plus 384 reader (Molecular Devices) and the concentration of compound required to reduce the IC50 of Cisplatin alone by at least 3-fold (to 1 decimal place) can be reported.
Compounds with a Cisplatin sensitization value of <0.02 μM are marked with “+++.” Compounds with a Cisplatin sensitization value>0.02 μM but <0.2 μM are marked with “++.” Compounds with a Cisplatin sensitization value >0.2 μM but <5 μM are marked with “+.”

With `CN(C)CCOc1ccncc1NC(=O)c1c(N)nn2ccc(C(F)(F)F)nc12` [I-O-17, 2-amino-N-(4-(2-(dimethylamino)ethoxy)pyridin-3-yl)-5-(trifluoromethyl)pyrazolo[1,5-a]pyrimidine-3-carboxamide], the negative-log Ki (pKi) in experiment [1] is 6.00 to 8.00. In addition, the “Synergy with Cisplatin” value in experiment [2] is given as “++ (Compounds with a Cisplatin sensitization value>0.02 μM but <0.2 μM are marked with “++.”)”.

With `CN(C)[C@H]1CC[C@@H](Oc2ccncc2NC(=O)c2c(N)nn3ccc(C(F)(F)F)nc23)CC1` [I-O-30, 2-amino-N-(4-(((1s,4s)-4-(dimethylamino)cyclohexyl)oxy)pyridin-3-yl)-5-(trifluoromethyl)pyrazolo[1,5-a]pyrimidine-3-carboxamide], in experiment [1], the negative logarithm of the Ki (pKi) is 6.00 to 8.00. In addition, the “Synergy with Cisplatin” value in experiment [2] is “+++ (Compounds with a Cisplatin sensitization value of <0.02 μM are marked with “+++.”)”.

`Nc1nn2ccc(C(F)(F)F)nc2c1C(=O)Nc1cnccc1Oc1cccnc1` [I-O-15, 2-amino-N-(4-(pyridin-3-yloxy)pyridin-3-yl)-5-(trifluoromethyl)pyrazolo[1,5-a]pyrimidine-3-carboxamide]: the negative-log Ki (pKi) in experiment [1] was above 8.00. Also, the “Synergy with Cisplatin” value in experiment [2] is listed as “+++ (Compounds with a Cisplatin sensitization value of <0.02 μM are marked with “+++.”)”.

For `COc1ccncc1NC(=O)c1c(N)nn2ccc(OCCN3CCC3)nc12` [I-O-59, 2-amino-5-(2-(azetidin-1-yl)ethoxy)-N-(4-methoxypyridin-3-yl)pyrazolo[1,5-a]pyrimidine-3-carboxamide], the negative logarithm of the Ki (pKi) in experiment [1] is 6.00 to 8.00. Besides, in experiment [2], the “Synergy with Cisplatin” value was “++ (Compounds with a Cisplatin sensitization value>0.02 μM but <0.2 μM are marked with “++.”)”.

Take `CN1CCC[C@@H]1COc1ccncc1NC(=O)c1c(N)nn2ccc(C(F)(F)F)nc12` [I-O-28, (R)-2-amino-N-(4-((1-methylpyrrolidin-2-yl)methoxy)pyridin-3-yl)-5-(trifluoromethyl)pyrazolo[1,5-a]pyrimidine-3-carboxamide]: the pKi in experiment [1] was 6.00 to 8.00. For the same compound, the “Synergy with Cisplatin” value in experiment [2] is on record as “++ (Compounds with a Cisplatin sensitization value>0.02 μM but <0.2 μM are marked with “++.”)”.

Turning to `CCCNc1ccn2nc(N)c(C(=O)Nc3cnccc3OC)c2n1` [I-O-67, 2-amino-N-(4-methoxypyridin-3-yl)-5-(propylamino)pyrazolo[1,5-a]pyrimidine-3-carboxamide], the pKi in experiment [1] was 6.00 to 8.00. Moreover, in experiment [2], the “Synergy with Cisplatin” value is on record as “++ (Compounds with a Cisplatin sensitization value>0.02 μM but <0.2 μM are marked with “++.”)”.

Regarding `COc1c(Cl)cncc1NC(=O)c1c(N)nn2ccc(C(F)(F)F)nc12` [I-O-48, 2-amino-N-(5-chloro-4-methoxypyridin-3-yl)-5-(trifluoromethyl)pyrazolo[1,5-a]pyrimidine-3-carboxamide], the pKi in experiment [1] was 6.00 to 8.00. Moreover, in experiment [2], the “Synergy with Cisplatin” value is recorded as “++ (Compounds with a Cisplatin sensitization value>0.02 μM but <0.2 μM are marked with “++.”)”.

For the compound `CC(C)Oc1ccncc1NC(=O)c1c(N)nn2ccc(OCCN(C)C)nc12` [I-O-64, 2-amino-5-(2-(dimethylamino)ethoxy)-N-(4-isopropoxypyridin-3-yl)pyrazolo[1,5-a]pyrimidine-3-carboxamide], in experiment [1], the negative-log Ki (pKi) is 5.30 to 6.00. Besides, in experiment [2], the “Synergy with Cisplatin” value is on record as “+ (Compounds with a Cisplatin sensitization value >0.2 μM but <5 μM are marked with “+.”)”.

For `Cc1ccncc1NC(=O)c1c(N)nn2ccc(OCCN(C)C)nc12` [I-C-3, 2-amino-5-(2-(dimethylamino)ethoxy)-N-(4-methylpyridin-3-yl)pyrazolo[1,5-a]pyrimidine-3-carboxamide], the negative-log Ki (pKi) in experiment [1] is 5.30 to 6.00. Besides, the “Synergy with Cisplatin” value in experiment [2] is “++ (Compounds with a Cisplatin sensitization value>0.02 μM but <0.2 μM are marked with “++.”)”.

Take `COc1ccncc1NC(=O)c1c(N)nn2ccc(N3CCNC(C(F)(F)F)C3)nc12` (stereo not shown) [I-O-74, 2-amino-N-(4-methoxypyridin-3-yl)-5-(3-(trifluoromethyl)piperazin-1-yl)pyrazolo[1,5-a]pyrimidine-3-carboxamide]: the pKi in experiment [1] is above 8.00. Moreover, in experiment [2], the “Synergy with Cisplatin” value was “+++ (Compounds with a Cisplatin sensitization value of <0.02 μM are marked with “+++.”)”.

With `COc1ccncc1NC(=O)c1c(N)nn2ccc(OCCN3CCCC3)nc12` [I-O-60, 2-amino-N-(4-methoxypyridin-3-yl)-5-(2-(pyrrolidin-1-yl)ethoxy)pyrazolo[1,5-a]pyrimidine-3-carboxamide], the pKi in experiment [1] was 6.00 to 8.00. Besides, the “Synergy with Cisplatin” value in experiment [2] was “++ (Compounds with a Cisplatin sensitization value>0.02 μM but <0.2 μM are marked with “++.”)”.

For the compound `Nc1nn2ccc(C(F)(F)F)nc2c1C(=O)Nc1cnccc1OCCO` [I-O-13, 2-amino-N-(4-(2-hydroxyethoxy)pyridin-3-yl)-5-(trifluoromethyl)pyrazolo[1,5-a]pyrimidine-3-carboxamide], the pKi in experiment [1] was above 8.00. Besides, the “Synergy with Cisplatin” value in experiment [2] was “+++ (Compounds with a Cisplatin sensitization value of <0.02 μM are marked with “+++.”)”.

As for `CN1CC[C@H](Oc2ccncc2NC(=O)c2c(N)nn3ccc(C(F)(F)F)nc23)C1` [I-O-40, (S)-2-amino-N-(4-((1-methylpyrrolidin-3-yl)oxy)pyridin-3-yl)-5-(trifluoromethyl)pyrazolo[1,5-a]pyrimidine-3-carboxamide], the pKi in experiment [1] is 6.00 to 8.00. Moreover, the “Synergy with Cisplatin” value in experiment [2] is given as “++ (Compounds with a Cisplatin sensitization value>0.02 μM but <0.2 μM are marked with “++.”)”.

For `CN1CC(Oc2ccncc2NC(=O)c2c(N)nn3ccc(C(F)(F)F)nc23)C1` [I-O-39, 2-amino-N-(4-((1-methylazetidin-3-yl)oxy)pyridin-3-yl)-5-(trifluoromethyl)pyrazolo[1,5-a]pyrimidine-3-carboxamide], the pKi in experiment [1] was 6.00 to 8.00.

As for `Nc1nn2ccc(C(F)(F)F)nc2c1C(=O)Nc1cnccc1N1CCN(CCO)CC1` [I-N-3, 2-amino-N-(4-(4-(2-hydroxyethyl)piperazin-1-yl)pyridin-3-yl)-5-(trifluoromethyl)pyrazolo[1,5-a]pyrimidine-3-carboxamide], the pKi in experiment [1] is 6.00 to 8.00.

Turning to `NCC1CCN(c2ccncc2NC(=O)c2c(N)nn3ccc(C(F)(F)F)nc23)CC1` [I-N-2, 2-amino-N-(4-(4-(aminomethyl)piperidin-1-yl)pyridin-3-yl)-5-(trifluoromethyl)pyrazolo[1,5-a]pyrimidine-3-carboxamide], the negative logarithm of the Ki (pKi) in experiment [1] is 6.00 to 8.00.

For `Nc1nn2ccc(C(F)(F)F)nc2c1C(=O)Nc1cnccc1OC1CCC2(CC1)OCCO2` [I-O-7, N-(4-(1,4-dioxaspiro[4.5]decan-8-yloxy)pyridin-3-yl)-2-amino-5-(trifluoromethyl)pyrazolo[1,5-a]pyrimidine-3-carboxamide], the pKi in experiment [1] is 6.00 to 8.00.

`CNC1CCN(c2ccn3nc(N)c(C(=O)Nc4cnccc4OC)c3n2)C1` (stereo not shown) [I-O-81, 2-amino-N-(4-methoxypyridin-3-yl)-5-(3-(methylamino)pyrrolidin-1-yl)pyrazolo[1,5-a]pyrimidine-3-carboxamide]: the pKi in experiment [1] was 6.00 to 8.00.

`COc1ccncc1NC(=O)c1c(N)nn2ccc(N3CC4(COC4)C3)nc12` [I-O-69, 2-amino-N-(4-methoxypyridin-3-yl)-5-(2-oxa-6-azaspiro[3.3]heptan-6-yl)pyrazolo[1,5-a]pyrimidine-3-carboxamide]: the pKi in experiment [1] is 6.00 to 8.00.

As for `Nc1nn2ccc(C(F)(F)F)nc2c1C(=O)Nc1cnccc1OC1CN2CCC1CC2` (stereo not shown) [I-O-29, 2-amino-N-(4-(quinuclidin-3-yloxy)pyridin-3-yl)-5-(trifluoromethyl)pyrazolo[1,5-a]pyrimidine-3-carboxamide], in experiment [1], the negative logarithm of the Ki (pKi) was 6.00 to 8.00.

As for `CC(C)(C#N)c1ccn2nc(N)c(C(=O)Nc3cnccc3OC3CNC3)c2n1` [I-O-53, 2-amino-N-(4-(azetidin-3-yloxy)pyridin-3-yl)-5-(2-cyanopropan-2-yl)pyrazolo[1,5-a]pyrimidine-3-carboxamide], the negative logarithm of the Ki (pKi) in experiment [1] was 6.00 to 8.00.
